# How the values were obtained:
# Type in all cases: physicochemical
# [1] = pKa of brivanib alaninate; settings: free base
# Source text: (§1) Brivanib alaninate is an ester compound that is formulated as a free base.
# [2] = pH dependent solubility
# Source text: as §1
# [3] = Stability in solution as a function of pH; settings: at acidic pH and at high pH
# Source text: as §1
# (§2) Its main degradation pathway at neutral and basic pH is hydrolysis to the parent compound, brivanib. Under acidic conditions, it can also undergo diaryl ether cleavage in solution as shown below.
# [4] = Stability of solid drug substance on storage; settings: stored at room temperature protected from moisture
# Source text: as §2
# [5] = Degradation of drug during wet granulation process; settings: wet granulation process (water as processing aid)
# Source text: The use of wet granulation process for brivanib alaninate was not expected to be suitable because brivanib alaninate degrades by hydrolysis. Therefore, any person skilled in the art of pharmaceutical formulation would logically implement all measures to minimize the exposure of drug to water during handling, formulation, processing, and storage.
# The manufacturing process of this formulation generally involves mixing the drug with dry powder excipients, such as with one or more binder, disintegrant, and filler. Water is then added to this premix while it is being continuously mixed in a mixer such as a high shear granulator. Alternatively, the binder may not be added as a dry powder to the premix, but dissolved in water. Addition of water with continuous mixing leads to the formation of granules, or granulation. The granules are then dried in dry, hot air using equipment and processes such as fluid bed drying or tray drying. Once dried, the granules may be milled using equipment such as comil or Fitzmil to reduce and/or reduce the width of distribution of particle size of granules. The granules are then mixed with extra-granular ingredients, which may include one or more of disintegrant, filler, glidant, and lubricant. The final blend is then compressed on a tablet press into core tablets. The core tablets may optionally be coated with a nonfunctional film coat.
compound,measurement,setting,value
"Cc1cc2c(F)c(Oc3ncnn4cc(OC[C@@H](C)OC(=O)[C@H](C)N)c(C)c34)ccc2[nH]1 [Brivanib alaninate, [(1R), 2S]-2-aminopropionic acid 2-[4-(4-fluoro-2-methyl-1H-indol-5-yloxy)-5-methylpyrrolo[2,1-f][1,2,4]triazin-6-yloxy]-1-methylethyl ester]",pKa,[1],6.9
same,solubility,[2]; acidic pH,increasing solubility
same,solubility,[2]; neutral and basic pH,limited solubility
same,degradation,[3],degrades rapidly
same,stability of solid drug substance,[4],acceptable stability
same,degradation of the drug by wet granulation,[5],did not really result in significant degradation

# From patent publication US20150297603A1, “HIGH DRUG LOAD TABLET FORMULATION OF [(1R), 2S]-2-AMINOPROPIONIC ACID 2-[4-(4-FLUORO-2-METHYL-1H-INDOL-5-YLOXY)-5-METHYLPYRROLO[2,1-f][1,2,4]TRIAZIN-6-YLOXY]-1-METHYLETHYL ESTER” (Bristol-Myers Squibb Company, priority 2011, published 2015)
